{
  "source": "patent US6548540B2",
  "about": "“Method of treating cancer using dithiocarbamate derivatives” (Charlotte-Mecklenburg Hospital Authority, priority 1998, dated 2003)",
  "format_in_all_cases": "cell-based, human",
  "key": {"[1]": {"test_system": "M1619 melanoma cells", "experiment": "Apoptosis by TdT 3'-OH fluorescein end-labeling of DNA fragments", "details": "5 μM disulfiram; 15 hours", "method": "To determine whether disulfiram induced apoptosis, cells grown to confluence on 35 mm Petri dishes or on glass slides were treated with disulfiram or DMSO as vehicle. Apoptosis was studied by terminal deoxynucleotidyl transferase (TdT) dependent 3′-OH fluorescein end-labeling of DNA fragments, using a Fluorescein-FragEL™ DNA fragmentation detection kit (Oncogene Research Products, Cambridge, Mass.). Apoptosis was also studied by visually assessing endonuclease dependent DNA fragmentation on ethidium bromide-stained agarose gels.\nIn FIG. 5A, M1619 melanoma cells treated with DMSO vehicle. In FIG. 5B, M1619 melanoma cells treated with 5 μM disulfiram. […] Cells were grown to confluence on 35 mm Petri dishes or on glass slides and treated for 15 hours with disulfiram or DMSO as vehicle. Apoptosis was studied by terminal deoxynucleotidyl transferase (TdT) dependent 3′-OH fluorescein end-labeling of DNA fragments, using a Fluorescein-FragEL™ DNA fragmentation detection kit (Oncogene Research Products, Cambridge, Mass.)."}, "[2]": {"test_system": "M1619 melanoma cells", "experiment": "MTT proliferation assay, M1619 melanoma", "method": "Human malignant cell lines were obtained from American Type Tissue Culture Collection (Rockville, Md.). Melanoma cells lines CRL 1585 and 1619 were cultured in RPMI 1640 (GIBCO-BRL, Life Technologies, Grand Island, N.Y.) with 10% FBS and passed with nonenzymatic Cell Dissociation Solution® (Sigma). The prostate adenocarcinoma cell line CRL 1435 (PC-3) was also cultured in RPMI 1640 with 10% FBS but passed with 0.05% trypsin and 0.53 mM EDTA. The squamous lung carcinoma NCI-H520 and the adenosquamous lung carcinoma NCI-H596 cell lines were grown in RPMI 1640 supplemented with 10% FBS, 10 mM HEPES and 1.0 mM sodium pyruvate and passed with trypsin/EDTA. The small cell lung carcinoma NCI-H82 was cultured as a suspension in RPMI 1640 with 10% FBS. All of the above were grown in a 37° C. humidified environment containing 5% CO2/air. The breast carcinoma cell line MDA-MB-453 was grown in a 37° C. humidified environment with free gas exchange with atmospheric air using Leibovitz's L-15 medium with 2 mM L-glutamine and 10% FBS and was passed with trypsin/EDTA.\nThe effect of disulfiram (0.15 to 5.0 μM), diethyldithiocarbamate (DDC, 1.0 μM) or PDTC (0.625 to 5.0 μM) on proliferation of malignant cell lines was studied in cultures stimulated with 10% FBS. Cell numbers were quantitated 24-72 hours later. In some experiments disulfiram or PDTC were added immediately after cells were plated. In other experiments, cells were plated and allowed to grow for 24-72 hours before fresh media with disulfiram or PDTC was added, and cell numbers were assayed 24-72 hours later.\nFinally, a number of dithiocarbamate effects on cells have been attributed to increasing the intracellular levels of copper ions. To further probe the role of copper in mediating cytotoxicity from disulfiram, cells were cultured with or without addition of the impermeate Cu^2+ chelator bathocuprioinedisulfonic acid (BCPS, 100 μM) added to medium to sequester Cu^2+ in the extracellular compartment. Cells were also treated 12 hours with various concentration of disulfiram (0.625 to 5.0 μM) and intracellular copper levels were measured as outlined below.\nProliferation of cultured cells was quantitated using a previously reported calorimetric method based upon metabolic reduction of the soluble yellow tetrazolium dye 3-[4,5-dimethylthiazol]-2yl-2,5-diphenyl tetrazolium bromide (MTT) to its insoluble purple formazan by the action of mitochondrial succinyl dehydrogenase (See, e.g., S. J. Hirst, et al., “Quantifying proliferation of cultured human and rabbit airway smooth muscle in response to serum and platelet derived growth factor,” Am. J. Respir. Cell Mol. Biol. 7:574-581 (1992); R. Dashtaki, et al. R., supra; S. S. Brar, et al., “Requirement for reactive oxygen species in serum-induced and platelet-derived growth factor-induced growth of airway smooth muscle,” J. Biol. Chem. 274:20017-20026 (1999)). This assay empirically distinguishes between dead and living cells. For proliferation studies, cells were seeded into 24-well uncoated plastic plates (Costar) at 50,000 cells per well and cultured with respective media and mitogens."}, "[3]": {"test_system": "bcl-2", "experiment": "Immunoblot for bcl-2", "details": "cell lines studied; data not shown", "method": "Cells were lysed and proteins were isolated and quantitated by immunoassay as previously detailed using 2 μg/ml of primary rabbit polyclonal antibodies against human bcl-2, p53, p21^WAF1/CiP1, cyclin A and cyclin B1, and peroxidase-labeled donkey polyclonal anti-rabbit IgG. Cells were placed on ice, washed twice with cold DPBS, scraped into 0.5 ml boiling buffer (10% [vol/vol] glycerol and 2% [wt/vol] sodium dodecyl sulfate [SDS] in 83 mM Tris, pH 6.8) and sheared by four passages through a pipette. Aliquots were removed for protein determination, using the BCA protein assay (Pierce). After 10% β-mercaptoethanol and 0.05% bromophenol blue were added, lysates were boiled for 5 min and stored at −80° C. until immunoblotting was performed. Proteins in defrosted samples were separated by SDS-polyacrylamide gel electrophoresis on 12% polyacrylamide gels (15 μg protein/lane) and electrotransferred to 0.45 μm Hybond ECL nitrocellulose membranes (Amersham Life Sciences) using the wet transblot method in transfer buffer (0.025 M Tris, 0.192 M glycine, 2.6 mM SDS, and 20%[vol/vol] methanol; pH 8.8) at 100 volts for 1 hour. […] Immunoblots were rinsed again as above and detected via an enhanced chemiluminescence method (ECL Western blotting detection system, Amersham Life Science, Buckinghamshire, England). […]"}},
  "data": [
    {"smiles": "CCN(CC)C(=S)SSC(=S)N(CC)CC", "note": "[Disulfiram, tetraethylthiuram disulfide]", "values": [
      {"measurement": "3'-OH fluorescein end-labeling of DNA fragments (apoptosis)", "setting": "[1]", "value": "markedly increases"},
      {"measurement": "IC50", "setting": "[2]; Homo sapiens, M1619, grown 24 hours, additional 24 hours, no added CuSO4, read-out: 50% inhibitory (IC50) concentration", "value": 0.625, "unit": "µM"},
      {"measurement": "inhibition at 0.625 µM", "setting": "[2]; Homo sapiens, disulfiram 0.625 μM, treatment after 24 hours of growth, read-out: Mean Percent Inhibition of Growth", "value": "59 ± 4", "unit": "%"},
      {"measurement": "inhibition at 1.25 µM", "setting": "[2]; Homo sapiens, disulfiram 1.25 μM, treatment after 24 hours of growth, read-out: Mean Percent Inhibition of Growth", "value": "35 ± 4", "unit": "%"},
      {"measurement": "inhibition at 2.5 µM", "setting": "[2]; Homo sapiens, disulfiram 2.5 μM, treatment after 24 hours of growth, read-out: Mean Percent Inhibition of Growth", "value": "39 ± 3", "unit": "%"},
      {"measurement": "inhibition at 5 µM", "setting": "[2]; Homo sapiens, disulfiram 5.0 μM, treatment after 24 hours of growth, read-out: Mean Percent Inhibition of Growth", "value": "37 ± 4", "unit": "%"},
      {"measurement": "100% inhibitory (IC100) concentration", "setting": "[2]; M1619, with 0.2 μM CuSO4 added to medium, grown 24 hours, additional 24 hours", "value": 0.625, "unit": "µM"},
      {"measurement": "growth in vitro of M1619 melanoma", "setting": "[2]; added at plating, 24 hours", "value": "potent inhibitor of growth"},
      {"measurement": "A540 of MTT Formazan", "setting": "[2]; disulfiram 0.6 μM + carmustine 1 μM, 24 hours", "value": "0.042 ± 0.003^C"},
      {"measurement": "A540 of MTT Formazan", "setting": "[2]; disulfiram 0.6 μM + carmustine 10 μM, 24 hours", "value": "0.025 ± 0.002^C"},
      {"measurement": "A540 of MTT Formazan", "setting": "[2]; disulfiram 0.6 μM + carmustine 100 μM, 24 hours", "value": "0.030 ± 0.023"},
      {"measurement": "A540 of MTT Formazan", "setting": "[2]; disulfiram 0.6 μM + carmustine 1,000 μM, 24 hours", "value": "0.004 ± 0.000"},
      {"measurement": "A540 of MTT Formazan", "setting": "[2]; disulfiram 2.5 μM + cisplatin 1 ng/ml, added after 48 hours, additional 24 hours", "value": "1.369 ± 0.033^B"},
      {"measurement": "A540 of MTT Formazan", "setting": "[2]; disulfiram 2.5 μM + cisplatin 10 ng/ml, added after 48 hours, additional 24 hours", "value": "1.221 ± 0.028"},
      {"measurement": "A540 of MTT Formazan", "setting": "[2]; disulfiram 2.5 μM + cisplatin 100 ng/ml, added after 48 hours, additional 24 hours", "value": "1.183 ± 0.038^A"},
      {"measurement": "A540 of MTT Formazan", "setting": "[2]; disulfiram 2.5 μM + cisplatin 1,000 ng/ml, added after 48 hours, additional 24 hours", "value": "0.921 ± 0.027^A"},
      {"measurement": "expression of bcl-2", "setting": "[3]", "value": "no consistent effect"}
    ]}
  ]
}
